# Measured values: patent US20230203096A1, “EPHA4 TARGETING COMPOUNDS AND METHODS OF USE THEREOF” (priority 2020, published 2023)
# Entries after “also recorded” stand apart in the source; their conditions may differ. Where two headings read alike, the source gives them in different places. Square brackets hold non-standard residues; d marks the D form. Peptide text beside a SMILES is read from it. * marks the point of attachment. Cyclohexanoyl(1S,3S-3-NH2) = N[C@H]1CCC[C@H](C(=O)*)C1; Trp(5-OH) = N[C@@H](Cc1c[nH]c2ccc(O)cc12)C(=O)O; NH(4-morpholinophenyl) = c1cc(N2CCOCC2)ccc1N*; Bip = N[C@@H](Cc1ccc(-c2ccccc2)cc1)C(=O)O; hArg = N=C(N)NCCCC[C@H](N)C(=O)O
# Experiments:
# EphA3-LBD Chimera = EphA3-LBD Chimera (Homo sapiens, UniProt P54764, C204A/E77D/G52H/I159L/I59G/M164L/M60V/R37K/V157M); assay: Isothermal titration calorimetry (ITC) against EphA3-LBD chimera; conditions: listed as 150D4
# Chain of EphA3-LBD Chimera (P54764 29-209 R37K/G52H/I59G/M60V/E77D/V157M/I159L/M164L/C204A): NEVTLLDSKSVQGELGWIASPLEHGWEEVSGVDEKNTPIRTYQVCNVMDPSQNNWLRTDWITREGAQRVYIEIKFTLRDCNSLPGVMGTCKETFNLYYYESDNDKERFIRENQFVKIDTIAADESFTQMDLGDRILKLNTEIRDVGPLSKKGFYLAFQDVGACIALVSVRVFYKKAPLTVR
# Description: Isothermal titration calorimetry (ITC) measurements were performed using the Affinity ITC Autosampler from TA Instruments (New Castle, Del.). The titrations were performed in a reverse fashion by titrating the protein into the ligand solution. […] The injections were made at 200 s or 400 s intervals with a stirring speed of 75 rpm. All the solutions were kept in the autosampler at 4° C. The analysis of the thermodynamics signatures and for dissociation constant determination was performed by the NanoAnalyze software (TA Instruments, New Castle, Del.) and subsequently exported into Microsoft Excel.
# [1] = In vivo pharmacokinetics and brain exposure; conditions: mice; for tissue level at time at 0.5 h / level at 0.5 h / tissue level at time at 24 h / level at 24 h / level at 1 h: mouse; for tissue level at time at 0.5 h / tissue level at time at 24 h: read-out: Amount of compound per mg of wet brain tissue
# [2] = tested on: primary spinal cord motor neurons; assay: Growth cone collapse in primary spinal cord motor neurons; conditions: 1 μM and 10 μM 150D4, 2 DIV neurons
smiles,measurement,setting,value
"N=C(N)NCCCC[C@H](NC(=O)[C@H](Cc1ccc(-c2ccccc2)cc1)NC(=O)[C@H](Cc1c[nH]c2ccc(O)cc12)NC(=O)[C@H]1CCC[C@H](N)C1)C(=O)NCC(=O)Nc1ccc(N2CCOCC2)cc1 [Compound 8, (1S,3S)—N—((S)-1-(((S)-3-([1,1′-biphenyl]-4-yl)-1-(((S)-6-guanidino-1-((2-((4-morpholinophenyl)amino)-2-oxoethyl)amino)-1-oxohexan-2-yl)amino)-1-oxopropan-2-yl)amino)-3-(5-hydroxy-1H-indol-3-yl)-1-oxopropan-2-yl)-3-aminocyclohexane-1-carboxamide] ({Cyclohexanoyl(1S,3S-3-NH2)}-[Trp(5-OH)][Bip][hArg]G-{NH(4-morpholinophenyl)})",binding to EphA3 (in words),EphA3-LBD Chimera,limited binding; also recorded: markedly reduced affinity
same,Total extracted brain compound,"[1]; 10 mg/kg IV, 30 min",205.6 ng
same,Total extracted brain compound,"[1]; 10 mg/kg IV, 24 hr",60 ng
same,Total extracted brain compound,"[1]; 50 mg/Kg IP, 30 min",185 ng
same,Total extracted brain compound,"[1]; 50 mg/Kg IP, 24 hr",34.7 ng
same,tissue level at time at 0.5 h,"[1]; brain, 10 mg/kg IV, 30 min",4730 ng/g
same,level at 0.5 h,"[1]; brain, 10 mg/kg IV, 30 min, read-out: Brain concentration",189 ng/mL
same,tissue level at time at 24 h,"[1]; brain, 10 mg/kg IV, 24 hr",1360 ng/g
same,level at 24 h,"[1]; brain, 10 mg/kg IV, 24 hr, read-out: Brain concentration",54 ng/mL
same,tissue level at time at 0.5 h,"[1]; brain, 50 mg/Kg IP, 30 min",4600 ng/g
same,level at 1 h,"[1]; brain, 50 mg/Kg IP, read-out: Brain concentration",184 ng/mL
same,tissue level at time at 24 h,"[1]; brain, 50 mg/Kg IP, 24 hr",1100 ng/g
same,level at 24 h,"[1]; brain, 50 mg/Kg IP, 24 hr, read-out: Brain concentration",45.5 ng/mL
same,level at 0.5 h,"[1]; plasma, 10 mg/kg IV, 30 min, read-out: Plasma drug concentration",484 ng/mL
same,level at 24 h,"[1]; plasma, 10 mg/kg IV, 24 hr, read-out: Plasma drug concentration",14.2 ng/mL
same,level at 1 h,"[1]; plasma, 50 mg/Kg IP, read-out: Plasma drug concentration",7740 ng/mL
same,level at 24 h,"[1]; plasma, 50 mg/Kg IP, 24 hr, read-out: Plasma drug concentration",45 ng/mL
same,growth cone collapse,[2],effective in inducing growth cone collapse
